This is an account of results in US5776944A, “7-(4-aminomethyl-3-methyloxyiminopyrroplidin-1-yl)-1-cyclopropyl-6-flu oro-4-oxo-1,4-dihydro-1,8-naphthyridine-3-carboxylic acid and the process for the preparation thereof” (LG Chemical Ltd., priority 1994, dated 1998).

In brackets after ≈: the same amount, converted by molar mass. Read-outs that look alike come from different tables or passages of the source. Where only a bound is given, the exact number is not on record here.

Common to all, as to assay type: cell-based
The subject of one assay is Micrococcus luteus 9341. The experiment in a line: In vitro antibacterial activity (MIC, agar dilution), Biological Example 1. Conditions: 18 h; Micrococcus luteus 9341, Table 25; read-out: Minimum Inhibitory Concentration. On the technique in general: In agar dilution the substance is mixed into plates at graded concentrations.
For assay [1], the system named is Streptococcus faecalis 29212. The description is as above. The conditions noted are these: Enterococcus faecalis, 18 h; Streptococcus faecalis 29212, Table 25; read-out: Minimum Inhibitory Concentration.
Assay [2] concerns Staphylococcus epidermidis 887E. Described as above. Conditions: 18 h, Table 25, read-out: Minimum Inhibitory Concentration.
Assay [3] relates to Citrobacter diversus 2046E. The assay is described as above. Conditions: Citrobacter koseri, 18 h, Table 25, read-out: Minimum Inhibitory Concentration.
A further assay deals with Escherichia coli 851E. Described as above. Conditions: 18 h, Table 25, read-out: Minimum Inhibitory Concentration.
Assay [4] concerns Escherichia coli TEM5 3739E. The experiment in a line: microbe, parasite or virus in culture. Conditions: TEM53739E, 18 h, read-out: Minimum Inhibitory Concentration.
Assay [5] relates to Salmonella typimurium 14028. The experiment in a line: In vitro antibacterial activity (MIC, agar dilution), Biological Example 1. Conditions: 18 h; Salmonella typimurium 14028, Table 25; read-out: Minimum Inhibitory Concentration.
In the next assay the test system is Bacillus subtilis 6633. Described as above. The conditions noted are these: 18 h; Bacillus subtilis 6633, Table 25; read-out: Minimum Inhibitory Concentration.
Assay [6] relates to Klebsiella aerogenes 1976E. Described as above. The conditions noted are these: 18 h, Table 25, read-out: Minimum Inhibitory Concentration.
Assay [7] deals with Staphylococcus aureus giorgio. The assay is described as above. The conditions noted are these: 18 h, Table 25, read-out: Minimum Inhibitory Concentration.
The next assay deals with Escherichia coli 3190Y. The description is as above. Conditions: 18 h, Table 25, read-out: Minimum Inhibitory Concentration.
Assay [8] has as its system Escherichia coli TEM3 3455E. The experiment in a line: microbe, parasite or virus in culture. Conditions: TEM33455E, 18 h, read-out: Minimum Inhibitory Concentration.
The test system of assay [9] is Staphylococcus aureus 241. The assay is described as follows: In vitro antibacterial activity (MIC, agar dilution), Biological Example 1. Conditions: 18 h; Staphylococcus aureus 241, Table 25; read-out: Minimum Inhibitory Concentration.
For assay [10], the system named is Pseudomonas aeruginosa 10145. Described as above. Conditions: 18 h; Pseudomonas aeruginosa 10145, Table 25; read-out: Minimum Inhibitory Concentration.
For assay [11], the system named is Enterobacter cloacae 1194E. The assay is described as follows: microbe, parasite or virus in culture. Conditions: 18 h, read-out: Minimum Inhibitory Concentration.
A further assay deals with Enterobacter cloacae P99. The experiment in a line: microbe, parasite or virus in culture. Conditions: P99, 18 h, read-out: Minimum Inhibitory Concentration.
For assay [12], the system named is Escherichia coli TEM9 2639E. The assay is described as follows: microbe, parasite or virus in culture. Conditions: TEM92639E, 18 h, read-out: Minimum Inhibitory Concentration.
The next assay concerns Escherichia coli 10536. The assay is described as follows: In vitro antibacterial activity (MIC, agar dilution), Biological Example 1. Conditions: read-out: Minimum Inhibitory Concentration.
Assay [13] relates to Staphylococcus aureus 6538p. The assay is described as above. The conditions noted are these: 18 h, Table 25, read-out: Minimum Inhibitory Concentration.
The next assay relates to Staphylococcus aureus 77. The assay is described as above. Conditions: 18 h; Staphylococcus aureus 77, Table 25; read-out: Minimum Inhibitory Concentration.
The test system of assay [14] is Pseudomonas aeruginosa 1912E. The assay is described as above. Conditions: Pseudomonas aeruginosa, 1912E, 18 h, read-out: Minimum Inhibitory Concentration.
Assay [15] relates to Acinetobacter calcoaceticus 15473. The assay is described as above. The conditions noted are these: read-out: Minimum Inhibitory Concentration.
Assay [16] deals with Klebsiella aerogenes 1082E. The assay is described as above. Conditions: 18 h, Table 25, read-out: Minimum Inhibitory Concentration.
Assay [17] concerns Staphylococcus epidermidis 178. The description is as above. Conditions: 18 h; Staphylococcus epidermidis 178, Table 25; read-out: Minimum Inhibitory Concentration.
[18] abbreviates: Acinetobacter calcoaceticus, 15473, 18 h.

On to `CON=C1CN(c2cc3c(cc2F)c(=O)c(C(=O)O)cn3C2CC2)CC1CN` (stereo not drawn) [Example 179, 7-(4-aminomethyl-3-methoxyiminopyrrolidin-1-yl)-1-cyclopronyl-6-fluoro-4-oxo-1,4-dihydroquinoline-3-carboxylic acid], for which the MIC is 0.13 µg/mL (≈ 0.335 µM) in the assay with Micrococcus luteus 9341; 0.031 µg/mL (≈ 0.0798 µM) in [1]; 0.016 µg/mL (≈ 0.0412 µM) in [2]; 0.031 µg/mL (≈ 0.0798 µM) in assay [3]; no more than 0.008 µg/mL in the assay on Escherichia coli 851E; 0.063 µg/mL (≈ 0.162 µM) in [4]. Besides, the MIC in assay [5] was 0.063 µg/mL (≈ 0.162 µM); with Bacillus subtilis 6633, no more than 0.008 µg/mL; in assay [6], 0.13 µg/mL (≈ 0.335 µM); in assay [7] it was 0.016 µg/mL (≈ 0.0412 µM); in the assay with Escherichia coli 3190Y, no more than 0.008 µg/mL; in [8] it was 0.13 µg/mL (≈ 0.335 µM). In addition, the MIC in assay [9] was 2 µg/mL (≈ 5.15 µM); in assay [10] it was 0.25 µg/mL (≈ 0.644 µM); in assay [11], 0.031 µg/mL (≈ 0.0798 µM); in the assay on Enterobacter cloacae P99 it was 0.008 µg/mL (≈ 0.0206 µM); in assay [12] it was 0.031 µg/mL (≈ 0.0798 µM); with Escherichia coli 10536 (Escherichia coli, 10536, 18 h), less than 0.008 µg/mL. Also, the MIC in assay [13] was no more than 0.008 µg/mL; in the assay on Staphylococcus aureus 77, 0.031 µg/mL (≈ 0.0798 µM); in assay [14], 0.25 µg/mL (≈ 0.644 µM); in assay [15] (setting [18]), 0.016 µg/mL (≈ 0.0412 µM); in [16], 0.031 µg/mL (≈ 0.0798 µM); in assay [17], 2 µg/mL (≈ 5.15 µM).
Turning to `CON=C1CN(c2nc3c(cc2F)c(=O)c(C(=O)O)cn3C2CC2)CC1CN` (stereo not drawn) [Example 180, 7-(4-aminomethyl-3-methoxyiminonyrrolidin-1-yl)-1-cyclopropyl-6-fluoro-4-oxo-1,4-dihydro[1,8]naphthyridine-3-carboxylic acid], the MIC with Micrococcus luteus 9341 is 0.13 µg/mL (≈ 0.334 µM); in [1] it was 0.063 µg/mL (≈ 0.162 µM); in assay [2] it was no more than 0.008 µg/mL; in assay [3] it was 0.016 µg/mL (≈ 0.0411 µM); with Escherichia coli 851E, no more than 0.008 µg/mL; in assay [4], 0.13 µg/mL (≈ 0.334 µM). In addition, the MIC in assay [5] is 0.031 µg/mL (≈ 0.0796 µM); with Bacillus subtilis 6633, no more than 0.008 µg/mL; in assay [6], 0.13 µg/mL (≈ 0.334 µM); in assay [7], no more than 0.008 µg/mL; in the assay with Escherichia coli 3190Y it was no more than 0.008 µg/mL; in [8], 0.25 µg/mL (≈ 0.642 µM). Moreover, the MIC is 2 µg/mL (≈ 5.14 µM) in assay [9]; 0.25 µg/mL (≈ 0.642 µM) in assay [10]; 0.031 µg/mL (≈ 0.0796 µM) in assay [11]; no more than 0.008 µg/mL in the assay on Enterobacter cloacae P99; 0.031 µg/mL (≈ 0.0796 µM) in assay [12]; no more than 0.008 µg/mL with Escherichia coli 10536 (Escherichia coli, 10536, 18 h). Besides, the MIC in [13] is no more than 0.008 µg/mL; in the assay on Staphylococcus aureus 77, no more than 0.008 µg/mL; in assay [14] it was 0.25 µg/mL (≈ 0.642 µM); in assay [15] (setting [18]) it was 0.0634 µg/mL (≈ 0.163 µM); in assay [16] it was 0.016 µg/mL (≈ 0.0411 µM); in [17], 2 µg/mL (≈ 5.14 µM).
Take `CC1COc2c(N3CCN(C)CC3)c(F)cc3c(=O)c(C(=O)O)cn1c23` (stereo not drawn) [OFLX, ofloxacin, reference compound]: the MIC was 2 µg/mL (≈ 5.53 µM) with Micrococcus luteus 9341; 2 µg/mL (≈ 5.53 µM) in assay [1]; 0.25 µg/mL (≈ 0.692 µM) in [2]; 0.063 µg/mL (≈ 0.174 µM) in assay [3]; 0.063 µg/mL (≈ 0.174 µM) in the assay on Escherichia coli 851E; 0.5 µg/mL (≈ 1.38 µM) in assay [4]. Besides, the MIC in [5] amounted to 0.13 µg/mL (≈ 0.36 µM); in the assay with Bacillus subtilis 6633, 0.063 µg/mL (≈ 0.174 µM); in assay [6], 0.25 µg/mL (≈ 0.692 µM); in assay [7], 0.25 µg/mL (≈ 0.692 µM); with Escherichia coli 3190Y it was 0.016 µg/mL (≈ 0.0443 µM); in [8] it was 0.5 µg/mL (≈ 1.38 µM). Besides, the MIC in assay [9] was 64 µg/mL (≈ 177 µM); in assay [10], 2 µg/mL (≈ 5.53 µM); in [11], 0.063 µg/mL (≈ 0.174 µM); in the assay with Enterobacter cloacae P99, no more than 0.008 µg/mL; in assay [12] it was 0.063 µg/mL (≈ 0.174 µM); in the assay with Escherichia coli 10536 (18 h, Escherichia coli 10536, Table 25), 0.031 µg/mL (≈ 0.0858 µM). The MIC was 0.25 µg/mL (≈ 0.692 µM) in assay [13]; 0.25 µg/mL (≈ 0.692 µM) in the assay on Staphylococcus aureus 77; 0.5 µg/mL (≈ 1.38 µM) in [14]; 0.25 µg/mL (≈ 0.692 µM) in assay [15] (18 h, Acinetobacter calcoaceticus 15473, Table 25); 0.063 µg/mL (≈ 0.174 µM) in assay [16]; 32 µg/mL (≈ 88.6 µM) in assay [17].
